Columns and labels:
Assay type in all cases: cell-based
[1] = tested on: Bmi1-transduced mouse somatic cells (Oct4-positive cells); assay: Reprogramming of Oct4-positive Bmi1-transduced mouse somatic cells into iPS cells by treatment with low molecular weight substances; details: 0.5 μM PD0325901 and 3 μM CHIR99021 together; culture conditions of mouse embryonic stem cells
Description: (§1) Mouse somatic cells, in detail, mouse fibroblasts were employed to generate embryonic stem cell-like cells. Embryos were taken from CF1 strain mice on embryonic day 13.5. Cells were cultured in DMEM (high glucose, w/o sodium pyruvate) supplemented with 10% FBS (Fetal bovine serum), 0.1 mM non-essential amino acid, 1% penicillin/streptomycin and 0.1 mM β-mercaptoethanol in tissue culture flasks, after which fibroblasts at the 3rd passage were seeded at a density of 2×10^5 cells/well into 6-well plates.
(§2) For use in gene transfer, retrovirus particles were prepared from the PT67 packaging cell line. In this context, a pBabe puro Bmi1 (from Dr. G. P. Dimri, Evanston Northwestern Healthcare Research Institute, Feinberg School of Medicine, Northwestern University, Evanston, Ill. 60201, USA), constructed by inserting a human Bmi1 gene (NCBI accession No. L13689) into a pBabe puro vector, was transfected into a PT67 packaging cell line (Clontech) with the aid of Turbofect (Fermentas), followed by drug selection with puromycine (3 μg/ml, BD bioscience). The PT67 packaging cell line allowed the production of high-titer viruses capable of infecting a broad range of mammalian host cells.
(§3) The expression of each gene was monitored with RT-PCR. […]

[2] = tested on: Bmi1-transduced mouse somatic cells (neurosphere-like cells); assay: Reprogramming of neurosphere-like cells from Bmi1-transduced mouse somatic cells (EGF-free neural stem cell condition) into iPS cells; details: 1 μM BIX01294 and 0.5 μM RG108 together; one week; condition used for mouse embryonic stem cells
Description: as §1, §2, §3

[3] = tested on: Bmi1-transduced mouse somatic cells (neurosphere-like cells); assay: Reprogramming of neurosphere-like cells from Bmi1-transduced mouse somatic cells (neural stem cell condition with bFGF and EGF) into iPS cells; details: 2 mM VPA; one week; condition used for mouse embryonic stem cells
Description: as §1, §2, §3

Row | Structure (SMILES) | Reprogramming into iPS cells (BC-iPS 1) [1] | Reprogramming into iPS cells (BC-iPS 2) [2] | also measured
1 | Cc1c[nH]c(-c2cnc(NCCNc3ccc(C#N)cn3)nc2-c2ccc(Cl)cc2Cl)n1 [CHIR99021] | establish induced stem cells |  | 
2 | O=C(NOC[C@H](O)CO)c1ccc(F)c(F)c1Nc1ccc(I)cc1F [PD0325901] | establish induced stem cells |  | 
3 | O=C(O)[C@H](Cc1c[nH]c2ccccc12)N1C(=O)c2ccccc2C1=O [RG108, N-Phthalyl-L-tryptophan] |  | establish iPS cells | 
4 | CCCC(CCC)C(=O)O [VPA, 2-propylenepentanoic acid] |  |  | Reprogramming into iPS cells [3]: iPS cells were established
5 | COc1cc2nc(N3CCCN(C)CC3)nc(NC3CCN(Cc4ccccc4)CC3)c2cc1OC [BIX01294, 2-(Hexahydro-4-methyl-1H-1,4-diazepin-1-yl)-6,7-dimethoxy-N-[1-(phenylmethyl)-4-piperidinyl]4-quinazolinamine] |  | establish iPS cells | 

From US8518700B2, “Composition for reprogramming somatic cells to generate induced pluripotent stem cells, comprising Bmi1 and low molecular weight substance, and method for generating induced pluripotent stem cells using the same” (Korea University Research and Business Foundation, priority 2010, dated 2013)
